Legend:
Test in all cases: relative viability (nuclei count vs DMSO), 5 days (fraction); higher = more cells survive
Obatoclax + Phenformin = compound: COC1=CC(c2cc3ccccc3[nH]2)=N/C1=C\c1[nH]c(C)cc1C [Obatoclax] + N=C(N)NC(=N)NCCc1ccccc1 [Phenformin] (partner 250 µM)
Procedure, shortened: (§1)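 Relative viability is defined as nuclei in treated wells over nuclei in vehicle wells. Duplicate plates were run and medians reported. Lung cancer cell lines in 1536-well plates were dosed by pin tool one day after seeding, with one drug or with a fixed anchor-drug dose plus five library-drug doses (not always all listed) in √10 steps, and nuclei were counted after 5 days.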

Obatoclax + Navitoclax = compound: COC1=CC(c2cc3ccccc3[nH]2)=N/C1=C\c1[nH]c(C)cc1C [Obatoclax] + CC1(C)CCC(c2ccc(Cl)cc2)=C(CN2CCN(c3ccc(C(=O)NS(=O)(=O)c4ccc(N[C@H](CCN5CCOCC5)CSc5ccccc5)c(S(=O)(=O)C(F)(F)F)c4)cc3)CC2)C1 [Navitoclax] (partner 0.5 µM)
Procedure, shortened: as §1

Obatoclax + Olaparib = compound: COC1=CC(c2cc3ccccc3[nH]2)=N/C1=C\c1[nH]c(C)cc1C [Obatoclax] + O=C(c1cc(Cc2n[nH]c(=O)c3ccccc23)ccc1F)N1CCN(C(=O)C2CC2)CC1 [Olaparib] (partner 8 µM)
Procedure, shortened: as §1

[1] = compound: CC1=CC(=NN1)NC2=CC(=NC(=N2)/C=C/C3=CC=CC=C3)N4CCN(CC4)C + Cc1nc(Nc2ncc(C(=O)Nc3c(C)cccc3Cl)s2)cc(N2CCN(CCO)CC2)n1 [Dasatinib] (partner 0.075 µM)
Procedure, shortened: as §1

Cell Line	relative viability (Obatoclax + Phenformin; first compound 0.01 µM)	relative viability (Obatoclax + Phenformin; first compound 0.03162 µM)	relative viability (Obatoclax + Phenformin; first compound 0.1 µM)	relative viability (Obatoclax + Phenformin; first compound 0.3162 µM)	relative viability (Obatoclax + Phenformin; first compound 1 µM)	relative viability (Obatoclax + Navitoclax; first compound 0.01 µM)	relative viability (Obatoclax + Navitoclax; first compound 0.03162 µM)	relative viability (Obatoclax + Navitoclax; first compound 0.1 µM)	relative viability (Obatoclax + Navitoclax; first compound 0.3162 µM)	relative viability (Obatoclax + Navitoclax; first compound 1 µM)	relative viability (Obatoclax + Olaparib; first compound 0.01 µM)	relative viability (Obatoclax + Olaparib; first compound 0.03162 µM)	relative viability (Obatoclax + Olaparib; first compound 0.1 µM)	relative viability (Obatoclax + Olaparib; first compound 0.3162 µM)	relative viability (Obatoclax + Olaparib; first compound 1 µM)	relative viability ([1]; first compound 0.08 µM)	relative viability ([1]; first compound 0.253 µM)	relative viability ([1]; first compound 0.8 µM)	relative viability ([1]; first compound 2.53 µM)	relative viability ([1]; first compound 8 µM)
NCI-H2085	0.707	0.668	0.662	0.581	0.317	1.14	1.11	1.13	0.704	0.728	0.726	0.784	0.747	0.816	0.708	0.245	0.232	0.276	0.255	0.2
NCI-H2087	0.423	0.372	0.513	0.344	0.193	0.9	0.857	0.866	0.438	0.196	0.588	0.596	0.436	0.451	0.226	0.934	0.601	0.627	0.182	0.0767
NCI-H2126	0.544	0.517	0.504	0.526	0.454	0.837	0.839	0.875	0.887	0.908	0.872	0.851	0.903	0.865	0.918	0.64	0.696	0.662	0.476	0.189
NCI-H2170	0.362	0.414	0.396	0.419	0.437	0.618	0.554	0.606	0.609	0.577	0.574	0.607	0.574	0.585	0.655	0.573	0.563	0.471	0.203	0.112
NCI-H2228	0.339	0.387	0.3	0.285	0.159	1.16	0.984	0.677	0.919	0.944	0.583	0.521	0.62	0.489	0.405	0.448	0.539	0.369	0.0563	0.0381
NCI-H2347	0.496	0.366	–	0.506	0.517	0.724	0.781	0.698	0.602	0.877	0.56	0.572	0.528	0.524	0.476	0.297	0.305	0.336	0.293	0.24
NCI-H2405	0.411	0.394	–	0.402	0.411	0.82	1.06	–	0.862	0.857	0.911	0.981	–	0.935	0.734	0.227	0.216	0.206	0.165	0.109
NCI-H3122	0.385	0.404	0.317	0.386	0.351	1.02	1.01	1.04	1.04	1.02	0.655	0.517	0.642	0.613	0.678	0.9	0.633	0.811	0.551	0.176
PC-3 [JPC-3]	0.477	0.486	0.511	0.473	0.489	0.853	0.682	0.801	0.796	0.668	1.09	1.25	1.02	1	0.514	0.931	1.04	0.978	0.948	0.802
PC-14	0.551	0.612	0.308	0.425	0.281	0.968	1.07	0.962	0.847	0.128	0.285	0.306	0.14	0.0684	0.081	0.273	0.211	0.22	0.0234	0.0115
RERF-LC-KJ	0.37	0.441	0.459	0.45	0.434	1.04	0.845	0.729	0.875	0.319	0.897	0.903	0.897	0.863	0.33	0.908	0.944	0.837	0.249	0.166
SK-LU-1	0.587	0.507	0.414	0.246	0.244	0.753	0.871	0.424	0.222	0.216	0.448	0.468	0.372	0.447	0.347	0.174	0.171	0.156	0.108	0.0621
SK-MES-1	0.642	0.704	0.558	0.361	0.273	1.28	1.16	1.22	1.03	0.64	0.641	0.655	0.495	0.172	0.17	0.479	0.322	0.493	0.139	0.0976
SW 1573	0.333	0.31	0.282	0.24	0.153	1.04	0.788	0.989	0.937	0.267	0.488	0.529	0.363	0.149	0.179	0.545	0.578	0.517	0.0958	0.0582
UMC-11	0.303	0.294	0.291	0.272	0.242	0.315	0.311	0.316	0.299	0.111	0.316	0.448	0.43	0.415	0.289	0.487	0.426	0.329	0.163	0.125
